Reference: patent publication US7214709B2, “Arginine/ascorbic acid mixed powder as an oral supplement” (priority 2000, dated 2007)

System: O=NOO- derived from the reaction of NO· with O2·-
Assay: Formation of peroxynitrite from reaction of NO radical with superoxide
Settings: in vitro and in vivo condition
Description: Ascorbate is a typical scavenger of O2·^− and thus could inhibit the production of O═NOO^−. […] Based on this discovery, an administration of a great amount of arginine combined with ascorbic acid in an amount 1/5 times and more, for example from 1/5 to 20 times, especially from 1.5 to 20 times the amount of the arginine can be expected to prevent peroxidative injuries of cells caused by the ion, O═NOO^−. Therefore, the present invention also includes the following embodiments.

## O=C1O[C@H]([C@@H](O)CO)C(O)=C1O [ascorbic acid, L-ascorbic acid]
  Formation of O=NOO- (peroxynitrite): retards formation
